Test results as given in ChEMBL document CHEMBL4480432, “Expansion of a novel lead targeting M. tuberculosis DHFR as antitubercular agents” (Bioorg Med Chem, 2019).

Tests used:
Dihydrofolate reductase = molecular target: T1, Dihydrofolate reductase (Homo sapiens, UniProt P00374); assay: Inhibition of human DHFR assessed as reduction in consumption of NADPH using DHF as substrate preincubated for 1 min followed by DHF addition and measured for 2 mins by spectrophotometric method
T1 sequence (P00374 whole entry): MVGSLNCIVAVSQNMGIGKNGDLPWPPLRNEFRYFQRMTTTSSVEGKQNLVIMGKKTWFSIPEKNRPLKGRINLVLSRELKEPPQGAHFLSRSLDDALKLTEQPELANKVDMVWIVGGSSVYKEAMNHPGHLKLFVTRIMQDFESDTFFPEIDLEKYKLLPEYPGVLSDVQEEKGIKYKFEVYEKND

[1] = Sub-acute toxicity in albino Wistar rat assessed as effect on water intake at 1.25 to 10 mg/kg, po administered for 28 days measured post last dose; format: organism-based; settings: in vivo, 672 h
[2] = Sub-acute toxicity in albino Wistar rat assessed as salivation at 1.25 to 10 mg/kg, po administered for 28 days; format: organism-based; settings: in vivo, 672 h
[3] = Sub-acute toxicity in albino Wistar rat assessed as effect on sleep at 1.25 to 10 mg/kg, po administered for 28 days; format: organism-based; settings: in vivo, 672 h
[4] = Sub-acute toxicity in albino Wistar rat assessed as change in colour at 1.25 to 10 mg/kg, po administered for 28 days; format: organism-based; settings: in vivo, 672 h
[5] = Sub-acute toxicity in albino Wistar rat assessed as change in central nervous system at 1.25 to 10 mg/kg, po administered for 28 days; format: organism-based; settings: in vivo, 672 h
[6] = Sub-acute toxicity in albino Wistar rat assessed as effect on skin at 1.25 to 10 mg/kg, po administered for 28 days; format: organism-based; settings: in vivo, 672 h
[7] = Sub-acute toxicity in albino Wistar rat assessed as change in ALT level at 1.25 mg/kg, po administered for 28 days measured post last dose (reference value: 12.19 +/- 1.78 U/L); format: organism-based; settings: in vivo, 672 h
[8] = Sub-acute toxicity in albino Wistar rat assessed as change in hemoglobin level at 1.25 mg/kg, po administered for 28 days measured post last dose (reference value: 12.14 +/- 1.45 g%); format: organism-based; settings: in vivo, 672 h
[9] = Sub-acute toxicity in albino Wistar rat assessed as change in SOD level per mg protein at 1.25 mg/kg, po administered for 28 days measured post last dose (reference value: 4.85 +/- 0.34 U); format: organism-based; settings: in vivo, 672 h
[10] = Sub-acute toxicity in albino Wistar rat assessed as change in AST level at 2.5 mg/kg, po administered for 28 days measured post last dose (reference value: 22.5 +/- 1.76 U/L); format: organism-based; settings: in vivo, 672 h
[11] = Sub-acute toxicity in albino Wistar rat assessed as change in ALT level at 2.5 mg/kg, po administered for 28 days measured post last dose (reference value: 12.19 +/- 1.78 U/L); format: organism-based; settings: in vivo, 672 h
[12] = Sub-acute toxicity in albino Wistar rat assessed as change in serum protein level at 2.5 mg/kg, po administered for 28 days measured post last dose (reference value: […]); format: organism-based; settings: in vivo, 672 h
[13] = Sub-acute toxicity in albino Wistar rat assessed as change in CAT level per mg protein at 2.5 mg/kg, po administered for 28 days measured post last dose (reference value: 28.45 +/- 2.1 U); format: organism-based; settings: in vivo, 672 h
[14] = Sub-acute toxicity in albino Wistar rat assessed as change in MDA level per mg protein at 2.5 mg/kg, po administered for 28 days measured post last dose (reference value: 0.91 +/- 0.1 nmol); format: organism-based; settings: in vivo, 672 h
[15] = Sub-acute toxicity in albino Wistar rat assessed as change in ALT level at 5 mg/kg, po administered for 28 days measured post last dose (reference value: 12.19 +/- 1.78 U/L); format: organism-based; settings: in vivo, 672 h
[16] = Sub-acute toxicity in albino Wistar rat assessed as change in Urea level at 5 mg/kg, po administered for 28 days measured post last dose (reference value: 24.54 +/- 2.12 mg/dl); format: organism-based; settings: in vivo, 672 h
[17] = Sub-acute toxicity in albino Wistar rat assessed as change in serum protein level at 5 mg/kg, po administered for 28 days measured post last dose (reference value: […]); format: organism-based; settings: in vivo, 672 h
[18] = Sub-acute toxicity in albino Wistar rat assessed as change in CAT level per mg protein at 5 mg/kg, po administered for 28 days measured post last dose (reference value: 28.45 +/- 2.1 U); format: organism-based; settings: in vivo, 672 h
[19] = Sub-acute toxicity in albino Wistar rat assessed as change in MDA level per mg protein at 5 mg/kg, po administered for 28 days measured post last dose (reference value: 0.91 +/- 0.1 nmol); format: organism-based; settings: in vivo, 672 h
[20] = Sub-acute toxicity in albino Wistar rat assessed as change in AST level at 10 mg/kg, po administered for 28 days measured post last dose (reference value: 25 +/- 1.76 U/L); format: organism-based; settings: in vivo, 672 h
[21] = Sub-acute toxicity in albino Wistar rat assessed as change in serum protein level at 10 mg/kg, po administered for 28 days measured post last dose (reference value: […]); format: organism-based; settings: in vivo, 672 h
[22] = Sub-acute toxicity in albino Wistar rat assessed as change in hemoglobin level at 10 mg/kg, po administered for 28 days measured post last dose (reference value: 12.14 +/- 1.45 g%); format: organism-based; settings: in vivo, 672 h
[23] = Sub-acute toxicity in albino Wistar rat assessed as change in MDA level per mg protein at 10 mg/kg, po administered for 28 days measured post last dose (reference value: 0.91 +/- 0.1 nmol); format: organism-based; settings: in vivo, 672 h

**Q.** For `CC(=O)c1c(C)n(Cc2ccccc2)c2ccc(OCc3cn(-c4ccc(Br)cc4)nn3)cc12`, which IC50 (Dihydrofolate reductase) is on record?
**A.** 125 µM

**Q.** And the Activity [1]?
**A.** Non-Toxic

**Q.** What about the Activity [2] of the same compound?
**A.** Non-Toxic

**Q.** And the Activity [3]?
**A.** Non-Toxic

**Q.** And the Activity [4]?
**A.** Non-Toxic

**Q.** What about the Activity [5] of the same compound?
**A.** Non-Toxic

**Q.** And the Activity [6]?
**A.** Non-Toxic

**Q.** What about the Activity [7] of the same compound?
**A.** 13.09 U/L

**Q.** What about the Activity [8] of the same compound?
**A.** 12.12 g%

**Q.** And the Activity [9]?
**A.** 4.95 U

**Q.** What about the Activity [10] of the same compound?
**A.** 24 U/L

**Q.** What about the Activity [11] of the same compound?
**A.** 12.68 U/L

**Q.** What about the Activity [12] of the same compound?
**A.** 7.32 mg/dL

**Q.** What about the Activity [13] of the same compound?
**A.** 30.11 U

**Q.** What about the Activity [14] of the same compound?
**A.** 1.05 nmol

**Q.** And the Activity [15]?
**A.** 14.32 U/L

**Q.** What about the Activity [16] of the same compound?
**A.** 26.43 mg/dL

**Q.** What about the Activity [17] of the same compound?
**A.** 7.54 mg/dL

**Q.** What about the Activity [18] of the same compound?
**A.** 31.34 U

**Q.** And the Activity [19]?
**A.** 1.11 nmol

**Q.** What about the Activity [20] of the same compound?
**A.** 26.98 U/L

**Q.** And the Activity [21]?
**A.** 7.76 mg/dL

**Q.** And the Activity [22]?
**A.** 13.98 g%

**Q.** What about the Activity [23] of the same compound?
**A.** 1.23 nmol
